According to PubChem BioAssay (NCI):
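Protocol summary: plate cells (96-well), add compound at 5 concentrations, incubate 48 h, interpolate endpoints linearly. At the GI50, growth is halved. TGI: concentration producing complete growth inhibition.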

Columns and labels:
Assay in all cases: growth of human tumour cells (NCI), 48 h
A498 renal = system: A498 renal
SW-620 colon = system: SW-620 colon
A549 NSCLC = system: A549 NSCLC
HOP-62 NSCLC = system: HOP-62 NSCLC
HOP-92 NSCLC = system: HOP-92 NSCLC
NCI-H522 lung = system: NCI-H522 lung
SNB-75 CNS = system: SNB-75 CNS
SK-MEL-2 melanoma = system: SK-MEL-2 melanoma
KM12 colon = system: KM12 colon

## CCCCCCCCOCC(O)COC (stereo unspecified)
A498 renal
  TGI: > 100 µM
SW-620 colon
  TGI: > 100 µM
A549 NSCLC
  TGI: > 100 µM
HOP-62 NSCLC
  TGI: > 100 µM
HOP-92 NSCLC
  TGI: > 100 µM

## NC(N)=Nc1nc2cc(N)ccc2o1
A498 renal
  TGI: > 100 µM
SW-620 colon
  TGI: > 100 µM
A549 NSCLC
  TGI: > 100 µM
NCI-H522 lung
  TGI: > 100 µM
SNB-75 CNS
  TGI: > 100 µM
HOP-62 NSCLC
  TGI: > 100 µM
SK-MEL-2 melanoma
  TGI: > 100 µM
HOP-92 NSCLC
  TGI: > 100 µM
KM12 colon
  TGI: > 100 µM

## COc1cc(OC)c(Oc2cccc(OC)c2OC)c(OC)c1
A498 renal
  TGI: > 100 µM
SW-620 colon
  TGI: > 100 µM
A549 NSCLC
  TGI: > 100 µM
NCI-H522 lung
  TGI: > 100 µM
SNB-75 CNS
  TGI: > 100 µM
HOP-62 NSCLC
  TGI: > 100 µM
SK-MEL-2 melanoma
  TGI: > 100 µM
HOP-92 NSCLC
  TGI: > 100 µM
KM12 colon
  TGI: > 100 µM

## O=C(Nc1ccc(Cl)cc1Cl)c1c/c(=N\O)c2ccc(O)cc2o1
A498 renal
  TGI: > 100 µM
SW-620 colon
  TGI: > 100 µM
A549 NSCLC
  TGI: > 100 µM
NCI-H522 lung
  TGI: > 100 µM
SNB-75 CNS
  TGI: > 100 µM
HOP-62 NSCLC
  TGI: > 100 µM
HOP-92 NSCLC
  TGI: > 100 µM
KM12 colon
  TGI: > 100 µM

## COC(=O)c1ccc2n[se]nc2c1
A498 renal
  TGI: > 100 µM
SW-620 colon
  TGI: > 100 µM
A549 NSCLC
  TGI: > 100 µM
NCI-H522 lung
  TGI: > 100 µM
SNB-75 CNS
  TGI: > 100 µM
HOP-62 NSCLC
  TGI: > 100 µM
SK-MEL-2 melanoma
  TGI: > 100 µM
KM12 colon
  TGI: > 100 µM

## CC(C)(C)NC(=O)C12C3C4C1C1C2C3C41I (stereo unspecified)
A498 renal
  TGI: > 100 µM
SW-620 colon
  TGI: > 100 µM
A549 NSCLC
  TGI: > 100 µM
NCI-H522 lung
  TGI: > 100 µM
SK-MEL-2 melanoma
  TGI: > 100 µM
HOP-92 NSCLC
  TGI: > 100 µM
KM12 colon
  TGI: > 100 µM

## C[N+](C)(C)CC(=O)NC(=O)N/N=C\C(CC#N)CN(Cc1ccccc1)Cc1ccccc1 (stereo unspecified)
A498 renal
  TGI: > 100 µM
SW-620 colon
  TGI: > 100 µM
A549 NSCLC
  TGI: > 100 µM
NCI-H522 lung
  TGI: > 100 µM
SNB-75 CNS
  TGI: > 100 µM
HOP-62 NSCLC
  TGI: > 100 µM
SK-MEL-2 melanoma
  TGI: > 100 µM
KM12 colon
  TGI: > 100 µM

## O=c1c2ccccc2oc2nccnc12
A498 renal
  TGI: > 100 µM
SW-620 colon
  TGI: > 100 µM
A549 NSCLC
  TGI: > 100 µM
SNB-75 CNS
  TGI: > 100 µM
HOP-62 NSCLC
  TGI: > 100 µM
SK-MEL-2 melanoma
  TGI: > 100 µM
KM12 colon
  TGI: > 100 µM

## Cn1c(=O)c(C2c3ccccc3Oc3c2c(=O)n(C)c2ccccc32)c(O)c2ccccc21 (stereo unspecified)
SW-620 colon
  TGI: > 100 µM
A549 NSCLC
  TGI: > 100 µM
NCI-H522 lung
  TGI: 54.6 µM
SNB-75 CNS
  TGI: > 100 µM
HOP-62 NSCLC
  TGI: > 100 µM
SK-MEL-2 melanoma
  TGI: > 100 µM
HOP-92 NSCLC
  TGI: > 100 µM
KM12 colon
  TGI: > 100 µM

## O=C(N/C(=C\c1cc(Cl)ccc1Cl)c1nc2ccccc2[nH]1)c1ccccc1
SW-620 colon
  TGI: 52.8 µM
A549 NSCLC
  TGI: > 100 µM
NCI-H522 lung
  TGI: > 100 µM
SK-MEL-2 melanoma
  TGI: > 100 µM
HOP-92 NSCLC
  TGI: 31.5 µM
KM12 colon
  TGI: 88.9 µM

## COc1ccc(-c2cc(-c3ccco3)c(C#N)c(=O)n2C2OC(OC(=O)c3ccccc3)C(OC(=O)c3ccccc3)C2OC(=O)c2ccccc2)cc1 (stereo unspecified)
A498 renal
  TGI: > 100 µM
SW-620 colon
  TGI: > 100 µM
NCI-H522 lung
  TGI: > 100 µM
SNB-75 CNS
  TGI: > 100 µM
HOP-62 NSCLC
  TGI: > 100 µM
SK-MEL-2 melanoma
  TGI: > 100 µM
HOP-92 NSCLC
  TGI: 54.5 µM
KM12 colon
  TGI: > 100 µM

## Cc1cc(C)c(-c2noc(-c3ccc(Cl)cc3)c2C2=NCCN2)c(C)c1
SW-620 colon
  TGI: > 100 µM
A549 NSCLC
  TGI: > 100 µM
SNB-75 CNS
  TGI: 37.3 µM
HOP-62 NSCLC
  TGI: 62 µM
SK-MEL-2 melanoma
  TGI: 43.8 µM
KM12 colon
  TGI: 54 µM

## O=C1/C=C(/c2ccc(O)cc2)[C@H](O)Cc2ccc(OC3OC(CO)C(O)C(O)C3O)cc2O1 (stereo partly specified) (tested in a mixture with another compound)
A498 renal
  TGI: > 100 µM
SW-620 colon
  TGI: > 100 µM
A549 NSCLC
  TGI: > 100 µM
NCI-H522 lung
  TGI: > 100 µM
HOP-62 NSCLC
  TGI: > 100 µM
SK-MEL-2 melanoma
  TGI: > 100 µM
KM12 colon
  TGI: > 100 µM

## COc1ncn(C2C=C(CO)C(O)C2O)c(=O)n1 (stereo unspecified)
A498 renal
  TGI: > 100 µM
A549 NSCLC
  TGI: > 100 µM
NCI-H522 lung
  TGI: > 100 µM
SNB-75 CNS
  TGI: > 100 µM
HOP-62 NSCLC
  TGI: > 100 µM
SK-MEL-2 melanoma
  TGI: > 100 µM
KM12 colon
  TGI: > 100 µM

## O=C(c1ccc(Cl)cc1)N(C(=S)N1CCN(c2ccccc2)CC1)C1CCCCC1
SW-620 colon
  TGI: > 100 µM
A549 NSCLC
  TGI: > 100 µM
NCI-H522 lung
  TGI: > 100 µM
SNB-75 CNS
  TGI: > 100 µM
HOP-62 NSCLC
  TGI: > 100 µM
SK-MEL-2 melanoma
  TGI: > 100 µM
HOP-92 NSCLC
  TGI: > 100 µM
KM12 colon
  TGI: > 100 µM

## c1cc(C2O[C@H]3CCCN3[C@@H]2c2ccncc2)ccn1 (stereo partly specified)
A498 renal
  TGI: > 100 µM
SW-620 colon
  TGI: > 100 µM
A549 NSCLC
  TGI: > 100 µM
NCI-H522 lung
  TGI: > 100 µM
SNB-75 CNS
  TGI: > 100 µM
HOP-62 NSCLC
  TGI: > 100 µM
SK-MEL-2 melanoma
  TGI: > 100 µM
KM12 colon
  TGI: > 100 µM

## COC(=O)CC[C@@H](NC(=O)C(C)NC(=O)COC1C(O)C(COC(=O)CCCCCCCCCCNC(=O)c2ccc([N+](=O)[O-])c3[nH]c4cc(Br)ccc4c(=O)c23)OC(OCc2ccccc2)C1NC(C)=O)C(N)=O (stereo partly specified)
SW-620 colon
  TGI: > 100 µM
A549 NSCLC
  TGI: > 100 µM
NCI-H522 lung
  TGI: > 100 µM
SNB-75 CNS
  TGI: > 100 µM
HOP-62 NSCLC
  TGI: > 100 µM
SK-MEL-2 melanoma
  TGI: > 100 µM
HOP-92 NSCLC
  TGI: > 100 µM
KM12 colon
  TGI: > 100 µM

## CCOc1cccc2cccnc12
SW-620 colon
  TGI: > 100 µM
A549 NSCLC
  TGI: > 100 µM
NCI-H522 lung
  TGI: > 100 µM
SNB-75 CNS
  TGI: > 100 µM
HOP-62 NSCLC
  TGI: > 100 µM
HOP-92 NSCLC
  TGI: > 100 µM
KM12 colon
  TGI: > 100 µM

## OCCOCn1nc(-c2ccccc2)nc1-c1cnccn1
SW-620 colon
  TGI: > 100 µM
A549 NSCLC
  TGI: > 100 µM
NCI-H522 lung
  TGI: > 100 µM
SNB-75 CNS
  TGI: > 100 µM
HOP-62 NSCLC
  TGI: > 100 µM
HOP-92 NSCLC
  TGI: > 100 µM
KM12 colon
  TGI: > 100 µM

## COc1cc(OC)cc(-c2n[nH]nc2-c2ccc3c(c2)OCO3)c1
A498 renal
  GI50: 0.343 µM
  TGI: 9.32 µM
SW-620 colon
  GI50: 0.105 µM
  TGI: > 100 µM
A549 NSCLC
  GI50: 0.289 µM
  TGI: 50.9 µM
HOP-62 NSCLC
  GI50: 0.336 µM
  TGI: > 100 µM
SK-MEL-2 melanoma
  GI50: 0.245 µM
  TGI: 55.7 µM
HOP-92 NSCLC
  GI50: 0.122 µM
  TGI: 1.59 µM
KM12 colon
  GI50: 0.07 µM
  TGI: 11.9 µM

## COc1cc(C=C2C(=O)OC(C)(C)OC2=O)cc(OC)c1OC
SW-620 colon
  TGI: > 100 µM
A549 NSCLC
  TGI: > 100 µM
NCI-H522 lung
  TGI: > 100 µM
SK-MEL-2 melanoma
  TGI: > 100 µM
HOP-92 NSCLC
  TGI: > 100 µM
KM12 colon
  TGI: > 100 µM
